Source: US20250101023A1, “HETEROARYL DERIVATIVE AND USES THEREOF” (IUCF-HYU (INDUSTRY-UNIVERSITY COOPERATION FOUNDATION …, priority 2022, published 2025)

How the values were obtained:
[1] = test system: Pol II CTD (Ser2) phosphorylation; assay: Western blot, Pol II CTD Ser2 phosphorylation; assay type: cell-based; conditions: SK-Br3 and HCC1954 cell lines, 40 and 200 nM, 2 hours
RSK4 = RSK4 (Homo sapiens (Human), UniProt Q9UK32); assay: Kinome-wide profiling; assay type: biochemical; conditions: read-out: % Residual Activity (mean)
CDC7/DBF4 = CDC7/DBF4 (Homo sapiens (Human), UniProt O00311); assay: Kinome-wide profiling; assay type: biochemical; conditions: read-out: % Residual Activity (mean)
c-Src = c-Src (Homo sapiens (Human), UniProt P12931); assay: Kinome-wide profiling; assay type: biochemical; conditions: read-out: % Residual Activity (mean)
MNK1 = MNK1 (Homo sapiens (Human), UniProt Q9BUB5); assay: Kinome-wide profiling; assay type: biochemical; conditions: read-out: % Residual Activity (mean)
MARK1 = MARK1 (Homo sapiens (Human), UniProt Q9P0L2); assay: Kinome-wide profiling; assay type: biochemical; conditions: read-out: % Residual Activity (mean)
SK-Br3 and HCC1954 cells = assay: Combined treatment with trastuzumab; assay type: cell-based; conditions: 40 nM Example 53 with trastuzumab titration, 72 hours
Source text: The effect of combined administration was investigated in SK-Br3 and HCC1954 cells.

JNK1 = JNK1 (Homo sapiens (Human), UniProt P45983); assay: Kinome-wide profiling; assay type: biochemical; conditions: read-out: % Residual Activity (mean)
FGFR4 = FGFR4 (Homo sapiens (Human), UniProt P22455); assay: Kinome-wide profiling; assay type: biochemical; conditions: read-out: % Residual Activity (mean)
RIPK4 = RIPK4 (Homo sapiens (Human), UniProt P57078); assay: Kinome-wide profiling; assay type: biochemical; conditions: read-out: % Residual Activity (mean)
PAK3 = PAK3 (Homo sapiens (Human), UniProt O75914); assay: Kinome-wide profiling; assay type: biochemical; conditions: read-out: % Residual Activity (mean)
NEK3 = NEK3 (Homo sapiens (Human), UniProt P51956); assay: Kinome-wide profiling; assay type: biochemical; conditions: read-out: % Residual Activity (mean)
PASK = PASK (Homo sapiens (Human), UniProt Q96RG2); assay: Kinome-wide profiling; assay type: biochemical; conditions: read-out: % Residual Activity (mean)
EPHA2 = EPHA2 (Homo sapiens (Human), UniProt P29317); assay: Kinome-wide profiling; assay type: biochemical; conditions: read-out: % Residual Activity (mean)
CDK18/cyclin Y (PCTK3) = CDK18/cyclin Y (PCTK3) (Homo sapiens (Human), UniProt Q07002); assay: Kinome-wide profiling; assay type: biochemical; conditions: read-out: % Residual Activity (mean)
GRK6 = GRK6 (Homo sapiens (Human), UniProt P43250); assay: Kinome-wide profiling; assay type: biochemical; conditions: read-out: % Residual Activity (mean)
GSK3b = GSK3b (Homo sapiens (Human), UniProt P49841); assay: Kinome-wide profiling; assay type: biochemical; conditions: read-out: % Residual Activity (mean)
STK22D/TSSK1 = STK22D/TSSK1 (Homo sapiens (Human), UniProt Q9BXA7); assay: Kinome-wide profiling; assay type: biochemical; conditions: read-out: % Residual Activity (mean)
STK38L/NDR2 = STK38L/NDR2 (Homo sapiens (Human), UniProt Q9Y2H1); assay: Kinome-wide profiling; assay type: biochemical; conditions: read-out: % Residual Activity (mean)
EGFR = EGFR (Homo sapiens (Human), UniProt P00533); assay: Kinome-wide profiling; assay type: biochemical; conditions: read-out: % Residual Activity (mean)
STK32B/YANK2 = STK32B/YANK2 (Homo sapiens (Human), UniProt Q9NY57); assay: Kinome-wide profiling; assay type: biochemical; conditions: read-out: % Residual Activity (mean)
SK-Br3 xenograft = SK-Br3 xenograft model, anticancer efficacy; assay type: in vivo, mouse; conditions: 10 mg/kg and 20 mg/kg, i.p. twice a week
Method: A mouse efficacy experiment was conducted after obtaining approval from the Laboratory Animal Ethics Committee of GenNBio (Review No.: GN-IACUC-Research 22-02-07). SK-Br3 and HCC-1954 cells (1×10^6 cells each) mixed with Matrigel (BD Biosciences) were […] injected into 5-week-old female Balb/c nude mice (Orient Bio, Seongnam, Republic of Korea). After tumors reached a size of about 100 mm^3, the compound, trastuzumab (20 mg/kg), and the like were intraperitoneally injected into mice (n=8 per group)(vehicle: 8% DMSO, 4% Tween-80, 88% PBS). The tumor size was measured twice weekly for about 4 weeks and calculated as follows. Volume (mm^3)=(a×b^2)/2; “a”, maximum diameter; “b”, vertical diameter

PKN1/PRK1 = PKN1/PRK1 (Homo sapiens (Human), UniProt Q16512); assay: Kinome-wide profiling; assay type: biochemical; conditions: read-out: % Residual Activity (mean)
DDR2 = DDR2 (Homo sapiens (Human), UniProt Q16832); assay: Kinome-wide profiling; assay type: biochemical; conditions: read-out: % Residual Activity (mean)
MKK4 = MKK4 (Homo sapiens (Human), UniProt P45985); assay: Kinome-wide profiling; assay type: biochemical; conditions: read-out: % Residual Activity (mean)
c-MET = c-MET (Homo sapiens (Human), UniProt P08581); assay: Kinome-wide profiling; assay type: biochemical; conditions: read-out: % Residual Activity (mean)
PKG2/PRKG2 = PKG2/PRKG2 (Homo sapiens (Human), UniProt Q13237); assay: Kinome-wide profiling; assay type: biochemical; conditions: read-out: % Residual Activity (mean)
HCC1954 cells = assay: Breast cancer growth inhibitory activity (Cell-titer Glo, 72 h); assay type: cell-based; conditions: Homo sapiens, read-out: HCC1954 GI50
How it was run: (§1)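 Cells seeded at 2,500 (SK-Br3) or 1,000 (HCC1954) per well and grown 24 h before treatment. Viability read by Cell-titer Glo luminescence; IC50 from titration curve fitting.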

SK-Br3 cells = assay: as above; assay type: cell-based; conditions: Homo sapiens, SK-BR-3; read-out: SK-Br3 GI50
How it was run: as §1

RAF1 = assay: Kinome-wide profiling; assay type: biochemical, human; conditions: 10 μM
WNK3 = WNK3 (Homo sapiens (Human), UniProt Q9BYP7); assay: Kinome-wide profiling; assay type: biochemical; conditions: read-out: % Residual Activity (mean)

Chain of MNK1 (Q9BUB5 whole entry): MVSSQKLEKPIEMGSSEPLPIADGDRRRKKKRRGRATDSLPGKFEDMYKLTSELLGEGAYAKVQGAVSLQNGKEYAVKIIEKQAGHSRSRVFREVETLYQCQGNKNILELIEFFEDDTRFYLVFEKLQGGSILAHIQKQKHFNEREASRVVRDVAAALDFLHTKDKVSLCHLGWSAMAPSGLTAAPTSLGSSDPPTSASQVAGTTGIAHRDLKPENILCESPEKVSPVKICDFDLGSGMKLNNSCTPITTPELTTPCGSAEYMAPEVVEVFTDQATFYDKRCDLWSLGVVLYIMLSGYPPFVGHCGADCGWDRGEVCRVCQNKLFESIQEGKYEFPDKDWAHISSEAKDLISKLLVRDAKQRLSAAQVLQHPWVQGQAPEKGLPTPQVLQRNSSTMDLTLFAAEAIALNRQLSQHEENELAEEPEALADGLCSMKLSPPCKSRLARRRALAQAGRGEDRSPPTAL
Chain of NEK3 (P51956 whole entry): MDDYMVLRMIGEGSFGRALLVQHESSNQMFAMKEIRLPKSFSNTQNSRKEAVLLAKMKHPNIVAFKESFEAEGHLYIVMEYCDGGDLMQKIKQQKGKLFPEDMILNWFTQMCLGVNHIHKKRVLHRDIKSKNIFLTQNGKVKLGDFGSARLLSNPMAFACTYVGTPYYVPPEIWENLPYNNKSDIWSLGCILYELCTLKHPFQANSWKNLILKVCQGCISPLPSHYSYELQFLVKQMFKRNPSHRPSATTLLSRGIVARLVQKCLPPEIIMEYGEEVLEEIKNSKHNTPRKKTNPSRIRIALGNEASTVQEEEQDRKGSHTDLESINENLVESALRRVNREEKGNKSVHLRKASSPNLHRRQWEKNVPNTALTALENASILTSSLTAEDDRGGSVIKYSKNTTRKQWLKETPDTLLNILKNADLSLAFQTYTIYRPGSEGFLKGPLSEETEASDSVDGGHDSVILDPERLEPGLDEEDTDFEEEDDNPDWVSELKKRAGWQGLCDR
Chain of CDC7/DBF4 (O00311 whole entry): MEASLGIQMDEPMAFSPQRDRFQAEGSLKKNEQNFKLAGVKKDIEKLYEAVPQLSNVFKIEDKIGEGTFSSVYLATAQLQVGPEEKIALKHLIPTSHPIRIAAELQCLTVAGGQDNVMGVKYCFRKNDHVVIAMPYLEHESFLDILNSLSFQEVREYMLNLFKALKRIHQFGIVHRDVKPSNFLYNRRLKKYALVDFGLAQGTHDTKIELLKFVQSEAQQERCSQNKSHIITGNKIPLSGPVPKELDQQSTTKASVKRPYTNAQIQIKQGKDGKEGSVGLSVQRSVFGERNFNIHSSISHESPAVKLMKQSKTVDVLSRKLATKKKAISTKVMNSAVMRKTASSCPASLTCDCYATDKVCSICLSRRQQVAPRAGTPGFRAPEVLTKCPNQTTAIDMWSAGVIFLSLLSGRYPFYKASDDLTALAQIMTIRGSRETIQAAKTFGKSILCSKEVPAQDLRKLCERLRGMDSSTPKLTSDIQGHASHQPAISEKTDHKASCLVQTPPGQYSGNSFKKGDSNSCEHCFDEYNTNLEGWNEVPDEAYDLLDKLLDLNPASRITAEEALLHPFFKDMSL
Chain of CDC7/DBF4 (Q9UBU7 whole entry partner): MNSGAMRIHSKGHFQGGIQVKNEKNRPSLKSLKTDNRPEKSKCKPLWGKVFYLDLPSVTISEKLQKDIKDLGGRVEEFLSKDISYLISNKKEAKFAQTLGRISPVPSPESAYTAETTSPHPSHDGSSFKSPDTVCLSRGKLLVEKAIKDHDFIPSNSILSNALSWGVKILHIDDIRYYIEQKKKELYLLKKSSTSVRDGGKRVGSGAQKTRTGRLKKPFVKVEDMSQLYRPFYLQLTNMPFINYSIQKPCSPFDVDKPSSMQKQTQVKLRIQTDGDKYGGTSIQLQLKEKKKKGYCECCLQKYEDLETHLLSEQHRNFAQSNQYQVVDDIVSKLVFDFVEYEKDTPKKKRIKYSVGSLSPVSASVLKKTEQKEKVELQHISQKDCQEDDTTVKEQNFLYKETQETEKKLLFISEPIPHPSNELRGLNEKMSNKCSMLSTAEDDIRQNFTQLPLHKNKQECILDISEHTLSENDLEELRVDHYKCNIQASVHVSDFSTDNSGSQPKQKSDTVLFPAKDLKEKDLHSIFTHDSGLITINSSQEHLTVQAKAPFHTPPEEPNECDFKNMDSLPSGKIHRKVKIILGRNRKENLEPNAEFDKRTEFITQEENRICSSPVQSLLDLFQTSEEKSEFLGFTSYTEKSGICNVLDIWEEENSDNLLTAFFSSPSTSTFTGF
Chain of CDK18/cyclin Y (PCTK3) (Q07002 whole entry): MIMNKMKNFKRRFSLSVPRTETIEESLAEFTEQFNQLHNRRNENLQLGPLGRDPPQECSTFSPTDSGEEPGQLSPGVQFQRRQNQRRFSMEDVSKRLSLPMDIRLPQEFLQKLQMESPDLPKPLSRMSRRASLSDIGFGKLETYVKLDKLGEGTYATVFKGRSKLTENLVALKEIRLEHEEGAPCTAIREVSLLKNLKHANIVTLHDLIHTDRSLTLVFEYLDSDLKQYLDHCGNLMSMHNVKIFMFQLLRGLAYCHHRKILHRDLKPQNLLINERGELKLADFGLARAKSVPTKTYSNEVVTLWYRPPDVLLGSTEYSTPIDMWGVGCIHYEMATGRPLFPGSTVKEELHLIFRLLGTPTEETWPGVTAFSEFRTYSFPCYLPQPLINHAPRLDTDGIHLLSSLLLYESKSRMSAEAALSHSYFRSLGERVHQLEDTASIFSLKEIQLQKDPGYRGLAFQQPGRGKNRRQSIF
Chain of CDK18/cyclin Y (PCTK3) (Q8ND76 whole entry partner): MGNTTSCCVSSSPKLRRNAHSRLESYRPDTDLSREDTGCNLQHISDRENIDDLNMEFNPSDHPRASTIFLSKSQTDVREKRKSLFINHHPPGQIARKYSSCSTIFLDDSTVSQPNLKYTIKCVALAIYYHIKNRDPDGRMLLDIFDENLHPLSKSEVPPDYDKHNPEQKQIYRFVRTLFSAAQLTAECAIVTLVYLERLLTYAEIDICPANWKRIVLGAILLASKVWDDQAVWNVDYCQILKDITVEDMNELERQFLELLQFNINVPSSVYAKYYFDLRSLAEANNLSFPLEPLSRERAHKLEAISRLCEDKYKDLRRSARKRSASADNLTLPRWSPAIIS
Chain of c-Src (P12931 whole entry, looked up): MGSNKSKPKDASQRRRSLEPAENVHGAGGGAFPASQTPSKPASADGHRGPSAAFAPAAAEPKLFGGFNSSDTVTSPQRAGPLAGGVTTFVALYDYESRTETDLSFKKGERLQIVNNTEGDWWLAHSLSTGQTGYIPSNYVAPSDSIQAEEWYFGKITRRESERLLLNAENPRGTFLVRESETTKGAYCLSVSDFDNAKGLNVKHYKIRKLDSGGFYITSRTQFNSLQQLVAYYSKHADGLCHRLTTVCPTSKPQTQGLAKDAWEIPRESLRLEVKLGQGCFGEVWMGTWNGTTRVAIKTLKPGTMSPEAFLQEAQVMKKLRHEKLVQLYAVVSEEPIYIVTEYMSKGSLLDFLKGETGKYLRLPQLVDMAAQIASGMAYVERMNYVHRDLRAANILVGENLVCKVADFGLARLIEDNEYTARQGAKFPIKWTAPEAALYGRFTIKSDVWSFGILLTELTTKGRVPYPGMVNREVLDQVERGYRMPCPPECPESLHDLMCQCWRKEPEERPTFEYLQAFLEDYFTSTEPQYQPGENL
Chain of GSK3b (P49841 whole entry): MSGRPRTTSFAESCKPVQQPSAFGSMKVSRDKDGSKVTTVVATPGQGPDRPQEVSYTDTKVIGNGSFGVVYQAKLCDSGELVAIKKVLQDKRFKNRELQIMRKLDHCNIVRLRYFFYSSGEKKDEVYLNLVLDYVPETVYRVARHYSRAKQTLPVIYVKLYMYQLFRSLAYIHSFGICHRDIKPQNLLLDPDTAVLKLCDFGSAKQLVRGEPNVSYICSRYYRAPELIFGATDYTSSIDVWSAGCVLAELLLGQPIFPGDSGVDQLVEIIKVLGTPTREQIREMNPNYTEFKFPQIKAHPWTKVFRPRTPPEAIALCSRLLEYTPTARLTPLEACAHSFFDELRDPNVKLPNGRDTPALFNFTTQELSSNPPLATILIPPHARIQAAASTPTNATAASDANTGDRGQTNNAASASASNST
Chain of PAK3 (O75914 whole entry): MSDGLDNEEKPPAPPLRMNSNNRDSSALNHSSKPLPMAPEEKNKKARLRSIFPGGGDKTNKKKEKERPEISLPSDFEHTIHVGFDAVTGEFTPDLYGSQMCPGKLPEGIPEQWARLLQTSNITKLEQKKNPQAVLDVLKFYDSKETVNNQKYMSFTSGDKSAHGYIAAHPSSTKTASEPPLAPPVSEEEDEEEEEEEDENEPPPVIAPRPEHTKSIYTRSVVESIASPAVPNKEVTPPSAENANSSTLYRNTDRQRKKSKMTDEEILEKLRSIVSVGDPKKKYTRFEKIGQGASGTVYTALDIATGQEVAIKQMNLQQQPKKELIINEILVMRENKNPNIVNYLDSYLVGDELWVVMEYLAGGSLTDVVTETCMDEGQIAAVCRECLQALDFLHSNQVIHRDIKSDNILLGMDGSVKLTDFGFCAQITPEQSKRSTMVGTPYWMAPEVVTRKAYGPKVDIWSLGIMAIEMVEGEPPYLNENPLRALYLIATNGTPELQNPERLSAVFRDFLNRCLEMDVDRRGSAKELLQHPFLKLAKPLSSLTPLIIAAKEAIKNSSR
Chain of MKK4 (P45985 whole entry): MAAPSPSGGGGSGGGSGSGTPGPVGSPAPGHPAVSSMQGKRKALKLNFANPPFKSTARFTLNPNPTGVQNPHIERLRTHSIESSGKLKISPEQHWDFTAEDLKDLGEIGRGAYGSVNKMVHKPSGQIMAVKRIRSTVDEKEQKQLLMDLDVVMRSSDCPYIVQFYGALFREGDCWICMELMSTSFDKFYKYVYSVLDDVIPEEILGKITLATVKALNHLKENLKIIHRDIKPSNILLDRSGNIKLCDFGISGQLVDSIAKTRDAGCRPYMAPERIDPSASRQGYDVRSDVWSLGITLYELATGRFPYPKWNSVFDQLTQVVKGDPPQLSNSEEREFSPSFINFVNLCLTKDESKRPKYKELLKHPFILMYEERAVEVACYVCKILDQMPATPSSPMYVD

In the case of CCn1cnc2c(NCc3ccc(-c4ccccn4)nc3)nc(-c3ccc(N)nc3)nc21 [Example 53, N-([2,2′-bipyridin]-5-ylmethyl)-2-(6-aminopyridin-3-yl)-9-ethyl-9H-purin-6-amine], the “Pol II CTD (Ser2) phosphorylation” value [1] is reported as “inhibited Pol II CTD (Ser2) phosphorylation”, the “Pol II CTD (Ser2) phosphorylation” value ([1]; listed as Compound 53) is reported as “strong dose-dependent suppression of Pol II phosphorylation” and the remaining activity at 10 µM (RSK4) is reported as 54.2%. It also gave a remaining activity at 10 µM (CDC7/DBF4) of 98.2%, a remaining activity at 10 µM (c-Src) of 60.1% and a remaining activity at 10 µM (MNK1) of 89.2%. For the same molecule, the remaining activity at 10 µM (MARK1) was 81.5%, the “anti-proliferative activity of trastuzumab on co-treatment” value (SK-Br3 and HCC1954 cells) was “slightly enhanced” and the “anti-proliferative activity of trastuzumab on co-treatment” value (SK-Br3 and HCC1954 cells; listed as Compound 53) was “slightly increased”. For the same molecule, the remaining activity at 10 µM (JNK1) was 41.6%, the remaining activity at 10 µM (FGFR4) was 87.4% and the remaining activity at 10 µM (RIPK4) was 97.8%. The remaining activity at 10 µM (PAK3) was 29.1%, the remaining activity at 10 µM (NEK3) was 86.6% and the remaining activity at 10 µM (PASK) was 96.3%. The remaining activity at 10 µM (EPHA2) was 42.3%, the remaining activity at 10 µM (CDK18/cyclin Y (PCTK3)) was 2.46% and the remaining activity at 10 µM (GRK6) was 80.6%. For the same molecule, the remaining activity at 10 µM (GSK3b) was 5.76%, the remaining activity at 10 µM (STK22D/TSSK1) was 38% and the remaining activity at 10 µM (STK38L/NDR2) was 36.9%. For the same molecule, the remaining activity at 10 µM (EGFR) was 83.7%, the remaining activity at 10 µM (STK32B/YANK2) was 57.6% and the anticancer efficacy (SK-Br3 xenograft) was “anticancer efficacy in a dose-dependent manner”. For the same molecule, the remaining activity at 10 µM (PKN1/PRK1) was 85.4%, the remaining activity at 10 µM (DDR2) was 87.2% and the remaining activity at 10 µM (MKK4) was 96.4%. The remaining activity at 10 µM (c-MET) was 96.4%, the remaining activity at 10 µM (PKG2/PRKG2) was 99.5% and the GI50 (HCC1954 cells) was 36 nM. The GI50 (SK-Br3 cells) was 38 nM, the “% Residual Activity (mean)” value (RAF1) was 68.57% and the remaining activity at 10 µM (WNK3) was 74.5%.
